Tests used:
[1] = lipophilicity (logD7.4), shake-flask method; type: physicochemical; conditions: n-octanol/PBS (1:1, v/v), n-octanol / PBS pH 7.4, ambient temperature, fourfold determination
Procedure: To estimate the lipophilicity of [^18F]TA3 and [^18F]TA4, the distribution coefficients were determined by partitioning between n-octanol and phosphate buffered saline (PBS, pH 7.4) at ambient temperature using the conventional shake-flask method. […] In vitro stability of each radioligand was investigated in phosphate buffered saline (PBS, pH 7.4), n-octanol and pig plasma after 60 min incubation at 37 °C.
The lipophilicity of [^18F]TA3 or [^18F]TA4 was determined by partitioning between n-octanol and phosphate buffered saline (PBS, pH 7.4) at ambient temperature using the conventional shake-flask method. An aliquot of 10 µL of the formulated solutions of each [^18F]TA3 or [^18F]TA4 with approximately 1 MBq of the radioligand was added to a tube containing 6 mL of the n-octanol/PBS-mixture (1:1, v/v, fourfold determination). The tubes were shaken for 20 min using a mechanical shaker (HS250 basic, IKA Labortechnik GmbH & Co. KG, Staufen, Germany) followed by centrifugation (5000 rpm for 5 min) and separation of the phases. Aliquots of each 1 mL were taken from the organic and the aqueous phase and activity was measured using an automated gamma counter (1480 WIZARD, Fa. Perkin Elmer, Waltham, MA, USA). The distribution coefficient (D) was calculated as [activity (cpm/mL) in n-octanol]/[activity (cpm/mL) in PBS, pH 7.4] specified as the decade logarithm (logD7.4).

[2] = molecular target: T1, PDE2A (Rattus norvegicus, UniProt Q01062); assay: in vitro autoradiography on sagittal rat brain sections; type: binding; conditions: sagittal rat brain slices, ~1 MBq/mL, 60 min incubation
T1 construct: from tissue; host or cells: sagittal brain sections of female SPRD rats
T1 sequence (Q01062 1-928): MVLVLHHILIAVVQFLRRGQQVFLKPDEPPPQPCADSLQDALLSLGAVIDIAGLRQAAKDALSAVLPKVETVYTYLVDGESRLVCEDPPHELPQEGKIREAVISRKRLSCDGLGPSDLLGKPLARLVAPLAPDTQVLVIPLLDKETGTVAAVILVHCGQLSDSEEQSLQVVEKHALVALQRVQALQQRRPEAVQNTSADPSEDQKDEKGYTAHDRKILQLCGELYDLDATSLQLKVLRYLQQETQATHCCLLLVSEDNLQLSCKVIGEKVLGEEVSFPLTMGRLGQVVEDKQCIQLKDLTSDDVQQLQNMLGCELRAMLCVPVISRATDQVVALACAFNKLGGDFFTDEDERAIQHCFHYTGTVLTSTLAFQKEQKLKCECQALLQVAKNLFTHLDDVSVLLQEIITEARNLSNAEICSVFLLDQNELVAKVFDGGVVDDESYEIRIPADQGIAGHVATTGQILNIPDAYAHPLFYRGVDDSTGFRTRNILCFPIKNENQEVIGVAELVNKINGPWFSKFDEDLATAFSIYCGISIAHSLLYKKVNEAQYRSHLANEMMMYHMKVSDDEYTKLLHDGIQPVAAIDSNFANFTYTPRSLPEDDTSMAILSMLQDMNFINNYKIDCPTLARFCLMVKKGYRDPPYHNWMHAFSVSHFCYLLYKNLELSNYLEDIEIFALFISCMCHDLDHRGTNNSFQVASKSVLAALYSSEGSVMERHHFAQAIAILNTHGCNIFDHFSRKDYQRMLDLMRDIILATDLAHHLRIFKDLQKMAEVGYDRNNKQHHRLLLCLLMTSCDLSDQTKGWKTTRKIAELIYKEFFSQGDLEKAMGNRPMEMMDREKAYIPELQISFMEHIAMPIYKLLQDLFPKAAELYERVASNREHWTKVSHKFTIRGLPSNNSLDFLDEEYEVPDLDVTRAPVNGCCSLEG
Procedure: In vitro autoradiographic studies were accomplished by incubating sagittal sections of rat brain with [^18F]TA3 or [^18F]TA4. […] The images shown in Figure 6 indicate region-specific accumulation of both radioligands [^18F]TA3 and [^18F]TA4, which is consistent with the distribution pattern of PDE2A protein in rat brain [9, 11]. Therefore, we assume that the novel radioligands might be appropriate for in vitro imaging of PDE2A.
Frozen sagittal brain sections obtained from female SPRD rats (10–12 weeks old) were thawed, dried in a stream of cold air, and preincubated for 20 min with incubation buffer (50 mM TRIS-HCl, pH 7.4, 120 mM NaCl, 5 mM KCl, 2 mM CaCl2, 5 mM MgCl2) at ambient temperature. Brain sections were incubated with ~1 MBq/mL of [^18F]TA3 or [^18F]TA4 in incubation buffer for 60 min at ambient temperature. Afterwards sections were washed twice with 50 mM TRIS-HCl (pH 7.4) for 2 min at 4 °C, dipped briefly in ice-cold deionized water, dried in a stream of cold air and exposed for 60 min to an ^18F-sensitive image plate that was analyzed afterwards using an image plate scanner (HD-CR 35; Duerr NDT GmbH, Bietigheim Bissingen, Germany).

[3] = in vivo metabolism in mice, conventional extraction and RP-HPLC; conditions: CD-1 mice, 30 min p.i., 150 MBq, extraction + RP-HPLC
Procedure: In vivo metabolism of [^18F]TA3 and [^18F]TA4 was investigated in plasma and brain samples obtained from CD-1 mice at 30 min post injection of 150 MBq of each radioligand. Analysis of the samples was performed after protein precipitation and twofold extraction using an organic solvent. […] In brain samples, 50% of total activity were represented by intact [^18F]TA3 (Figure 7; recovery: 65%).
The radioligands [^18F]TA3 or [^18F]TA4 (~60 MBq in 150 µL isotonic saline) were injected via the tail vein in female CD-1 mice (10–12 weeks old). Brain and blood samples were obtained at 30 min p.i., plasma separated by centrifugation (14,000× g, 1 min), and brain homogenized in ~1 mL isotonic saline on ice (10 strokes of a PTFE plunge at 1000 rpm in a borosilicate glass cylinder; Potter S Homogenizer, B. Braun Melsungen AG, Melsungen, Germany).
Twofold extractions of plasma (2 × 50 µL, 30 min p.i.) and brain samples (2 × 250 µL, 30 min p.i.) were performed using a mixture of ice-cold acetone/water (8:2, v/v; plasma or brain sample/organic solvent, 1:4, v/v). The samples were vortexed for 1 min, incubated on ice for 10 min (first extraction) or 5 min (second extraction) and centrifuged at 10,000 rpm for 5 min. Supernatants were collected and the precipitates were re-dissolved in ice-cold acetone/water for the second extraction. Aliquots from supernatants of each extraction step were taken. Activity thereof and of the precipitates was quantified using an automated gamma counter (1480 WIZARD, Fa. Perkin Elmer). The supernatants from both extractions were combined, concentrated under nitrogen stream at 70 °C and analyzed by radio-HPLC (system B).

logD [1]	intact radioligand in brain [3]	non-metabolized (intact) radioligand in plasma [3]	Structure (SMILES)	regional binding in autoradiography [2]
3.37 ± 0.14	50 % of total activity	8 % of total activity	COc1ccc2nnc3c(C)nc(-c4cc(OCCC[18F])ccc4F)n3c2n1 [[^18F]TA3]	higher binding densities in cortex and striatum than in cerebellum
2.99 ± 0.15	No intact [^18F]TA4 was detectable	6 % of total activity	COc1ccc2nnc3c(C)nc(-c4cc(OCCCC[18F])ccc4F)n3c2n1 [[^18F]TA4]	also binds to the olfactory tubercle, colliculi and partly to cerebellum

From paper PMC6272448, “Synthesis, ^18F-Radiolabelling and Biological Characterization of Novel Fluoroalkylated Triazine Derivatives for in Vivo Imaging of Phosphodiesterase 2A in Brain via Positron Emission Tomography” (Molecules, 2015)
